Laboratory results published in patent US11844800B2, “Methods and compositions for predicting and preventing relapse of acute lymphoblastic leukemia” (Massachusetts Institute of Technology, priority 2019, dated 2023).

Columns and labels:
[1] = system: BCR-ABL mutant B-cell ALL; format: in vivo, mice; settings: 13 models, n=88 animals
[2] = system: B-cell ALL leukemic cells in bone marrow; assay: Bone marrow involvement at MRD in B-cell ALL PDX mice after mono- or combination therapy; format: in vivo; settings: treated for 28 days
Method: Mice are treated with ponatinib alone, ponatinib in combination with QNZ (a TNF-alpha inhibitor), ponatinib in combination with fostamatinib (a proximal pre-BCR pathway inhibitor), ponatinib in combination with ibrutinib (a proximal pre-BCR pathway inhibitor), ponatinib in combination with duvelisib (a distal pre-BCR inhibitor), or ponatinib in combination with losmapimod (a p38 MAPK inhibitor) for 28 days. Bone marrow aspirates are obtained, and leukemic cells are isolated using conventional Ficoll centrifugation and FACS sorting methods. The leukemic cells are counted as bone marrow involvement at MRD, and it is compared to that before treatment.

## O=C(Nc1ccc(OC(F)(F)Cl)cc1)c1cnc(N2CC[C@@H](O)C2)c(-c2cc[nH]n2)c1 [ABL001, asciminib]
[1]
  Event free survival (remission/relapse, in words): significant earlier relapse

## Cc1ccc(C(=O)Nc2ccc(CN3CCN(C)CC3)c(C(F)(F)F)c2)cc1C#Cc1cnc2cccnn12 [ponatinib]
[2]
  bone marrow involvement at MRD: 8%
